From publication PMC7566913, “Dual Gene Delivery Reagents From Antiproliferative Alkylphospholipids for Combined Antitumor Therapy” (Frontiers in Chemistry, 2020)
“And” between values parts separate entries of the source, which are not always exact repeats. Equal values may be shown once. Read-outs that look alike come from different tables or passages of the source.

Columns and labels:
[1] = Hydrolytic stability of the APL prodrugs monitored by 31P-NMR; assay type: physicochemical
Excerpt: Aqueous formulation of the APL prodrugs produces nanosized lipid aggregates that most likely enter cells through the endocytosis pathway. To produce the expected intrinsic antineoplastic effect, APL-derived phosphotriesters need to be processed into the bioactive parent APLs. The hydrolysis of the prodrugs may be under the control of a chemical stimulus, e.g., a pH decrease as observed during the maturation of endosomes, or of degradation enzymes that massively enter the endosome compartment when continuing to lysosomes. To get some information on the transformation of pro-APLs into APLs, we monitored the hydrolysis of these compounds over time, at pH 7.4 and 4.5, conditions that mimick the extracellular milieu and the environment of the late endosome, respectively. This monitoring was realized using ^31P-NMR spectroscopy, according to a previously reported method (Pierrat et al., [2013b]). Whatever the compound investigated, only one single ^31P resonance did appear during the course of the experiments, corresponding to that of the parent APL. This confirmed that hydrolysis of the pro-APLs selectively occurred at the acetal center. […] As a general trend, hydrolysis of the pro-APLs was […] under neutral conditions (i.e., pH 7.4) than under acidic ones (i.e., pH 4.5). […] Besides, substitution of one hydrogen atom with a methyl group on the acetal bridge accelerated the rate of hydrolysis of the prodrugs. […] Indeed, in biological media, the enzyme-mediated hydrolysis of such compounds can proceed far quicker than “simple” chemical hydrolysis under pH control (Pierrat et al., [2012]). […]

[2] = tested on: A549 cells; test: Cytotoxicity, MTT assay, A549; assay type: cell-based, human; conditions: A549, 24 h at 37°C
Method: (§1) The cells were exposed for a 24-h period to increasing concentration of the pro-APLs, ranging from 500 nM to 1 mM, and cell viability was assessed using the MTT colorimetric assay (Mosmann, [1983]). For the three cell lines, viability decreased in a dose-dependent manner in response to APLs and pro-APLs (Supplementary Figures 2–4). Using the best-fit regression curve method, the IC50 value (concentration that provokes 50% inhibition of the cell growth) was calculated for each compound (Table 4). The three cell lines responded to the compounds with varying sensitivities. […] This is attributed to enzyme-mediated hydrolysis of the pro-APL compounds in the complemented culture medium or in the intracellular compartment, competing with pure pH-controlled chemical hydrolysis. According to its structure, a pro-APL may or not be a substrate for specific lipases and, thus, may or not be hydrolyzed into the parent cytotoxic compound. […]
(§2) At confluency, cells were released […]
(§3) Cells were seeded into 96-well plates (Becton-Dickinson) at the required density (vide supra) in 100 µL of serum containing culture medium. […]
(§4) Mitochondrial activity measurements (MTT assay) was used to assess cytotoxicity of the compounds.
(§5) Lipid samples were prepared from a lipid film (3.6 µmol of compound evaporated from an ethanolic solution) hydrated with aqueous glucose 5 % and vigorously vortexed for 20 s before serial dilution in aqueous glucose 5 %. For addition of lipid samples to cell culture, part of the culture medium in the culture plates prepared the day before (25 µL) was removed and replaced by lipid samples (25 µL). Negative control was obtained by adding glucose 5 % to the cells instead of lipoplexes.
(§6) After a 24-h incubation period at 37 °C, culture supernatant was removed, cells were carefully washed with PBS and MTT (100 µL, 0.5 mg/mL) in complete culture medium was added. After a 1-h incubation period at 37 °C, the MTT sol ution was removed and DMSO (100 µL) was added to lyse cells and dissolve reduced MTT. Intensity of MTT reduction was then evaluated by measuring absorbance at 492 nm. Viability of cells treated with lipids or lipoplexes was expressed as the percentage of the absorbance measured in untreated cells. Value for each sample is the mean of triplicate determinations (± SD). IC50 values were determined within the 95 % confidence interval using nonlinear regression analysis with the GraphPad Prism software (GraphPad Software, San […]
(§7) All data are representative of a triplicate determination and are presented as the mean ± SD.
(§8) Statistical significance between treatments was assessed by one-way analysis of variance (ANOVA) followed by the Dunnett multiple comparison test, using the Kaleidagraph 4.5 software (Synergy Software, Reading, PA, USA). Data were considered as statistically significant for p value less than

[3] = tested on: 16HBE cells; test: Cytotoxicity, MTT assay, 16HBE; assay type: cell-based, human; conditions: 24 h at 37°C
Method: as §1, §2, §3, §4, §5, §6, §7, §8

[4] = tested on: H292 cells; test: Cytotoxicity, MTT assay, H292; assay type: cell-based, human
Method: as §1, §2, §3, §4, §5, §6, §7, §8

[5] = CMC/CAC by pyrene fluorescent probe technique in ultrapure water; assay type: physicochemical; conditions: pyrene fluorescence
Method: The pro-APL molecules have been specifically engineered so they can be metabolized in situ under a biological stimulus to revert to the parent APL with antiproliferative activity. […] We thus aimed to determine the self-assembly properties of the APL prodrugs. […] Pyrene is a probe which fluorescence is sensitive to the polarity of the solubilizing medium. […] Fluorescence measurements were carried out in ultrapure water and data obtained for the various APLs and their prodrugs are shown in Table 2.
Pro-APLs Self-Assembly Properties
Starting from a lipid film, compounds were […]

[6] = Particle size and zeta potential of lipoplexes by DLS; assay type: physicochemical; conditions: lipoplexes with pCMV-Gluc, 25 °C, 5 % glucose, N/P 3, 1 molar equivalent of DOPE
Excerpt: The capacity of the pro-APLs to interact electrostatically with nucleic acids and form lipoplexes was checked by standard agarose gel electrophoresis. […] The size (hydrodynamic diameter) and charge (zeta potential, ζ) of the lipoplexes prepared at an N/P ratio of 3 with one molar equivalent of dioleoyl-sn-glycero-3-phosphatidylethanolamine (DOPE), a lipid with fusogenic properties (Hui et al., [1996]; Zuhorn et al., [2005]), were investigated by DLS (Supplementary Table 1).
as measured by DLS. Lipoplexes were prepared at 25 °C, in 5 % glucose, at a N/P ratio of 3 and with
1 molar equivalent of DOPE.
(Gaillard et al., 2019). Data are the mean of three independent measurements (± SD).

[7] = tested on: A549 cells; test: Gene transfer efficiency, pCMV-Gluc luciferase reporter gene assay; assay type: cell-based, human
Excerpt: The efficacy of the pro-APLs to mediate intracellular delivery of a plasmid DNA was examined in A549 human lung epithelial carcinoma cells using the pCMV-Gluc reporter gene encoding the luciferase of Gaussia princeps. This luciferase is secreted by cells and transgene expression can be conveniently assessed by standard bioluminescence measurements on aliquots of the cell culture supernatant, without need for prior cell lysis. Lipoplexes were formulated in glucose 5% at N/P ratios of 1, 3, and 5, with increasing amounts of DOPE as a helper lipid. They were deposited onto cells in the presence of 10% serum and luciferase activity was measured after 24 h (Figure 3). […] The influence of the nature of the pendant hydrophobic arm was also examined.
To investigate the effect of serum on the gene delivery properties of the APL prodrugs, cells were treated with lipoplexes in the presence of an increasing concentration of serum (Figure 5). Two DNA doses were considered.
Figure 5 Transfection efficiency of pro-APLs ME12 (A), PE12 (B), and EE12 (C) as a function of serum content. Pro-APL/DNA complexes were prepared at N/P 3, with 1 molar eq. of DOPE. A549 cells (6,000 cells/well) were seeded into 96-well plates in 100 μL of culture medium containing 10% serum. Twenty-four hours later, cell supernatant was replaced with culture medium complemented with increasing amounts of serum (from 10 to 75%) just before adding the lipoplexes (0.2 and 0.4 μg of DNA per well; light and deep purple bars, resp.). Control (light blue bar) refers to basal bioluminescence measured in untreated cells. […] Statistical significance vs. control. ***p < 0.001, **p < 0.01, *p < 0.05.

[8] = tested on: A549 cells; set-up: method as in Gaillard et al., 2019; conditions: A549, 24 h at 37°C, MTT assay; ref Gaillard et al., 2019; cited from earlier work
[9] = tested on: sheep RBC; conditions: sheep RBC, 37°C, ref Gaillard et al., 2019, cited from earlier work
[10] = set-up: method as in Gaillard et al., 2019; conditions: lipoplexes with pCMV-Gluc, N/P 3, 1 molar equivalent of DOPE; ref Gaillard et al., 2019; cited from earlier work
[11] = tested on: 16HBE cells; set-up: method as in Gaillard et al., 2019; conditions: 24 h at 37°C, MTT assay, ref Gaillard et al., 2019; cited from earlier work
[12] = set-up: method as in Gaillard et al., 2019; conditions: ref Gaillard et al., 2019, cited from earlier work
[13] = set-up: method as in Gaillard et al., 2019; conditions: pyrene fluorescence; ref Gaillard et al., 2019; cited from earlier work
[14] = tested on: H292 cells; set-up: method as in Gaillard et al., 2019; conditions: H292, 24 h at 37°C, MTT assay; ref Gaillard et al., 2019; cited from earlier work
[15] = tested on: sheep RBC; test: Hemolytic activity, red blood cell leakage assay; conditions: 37°C
Method: To evaluate this hypothesis, the hemolytic activity of the APLs and pro-APLs was measured. Sheep RBC were incubated for 1 h with escalating doses of aqueous dispersion of the compounds at 37°C. At the end of the incubation period, hemoglobin leakage was determined spectrophotometrically.
Thus, in order to better characterize the hemolytic effect of the pro-APLs, the incubation period has been extended and release of hemoglobin was measured after 24 h.
Red blood cell (RBC) leakage assay was carried out according to a previously described procedure
(Evans et al, 2013). RBC were prepared from defibrinated sheep blood. Briefly, blood sample (5 mL) was centrifuged at 500 x g for 5 min. After removal of the yellow upper layer, an equal volume of

[16] = set-up: method as in Yaseen et al., 2005; conditions: Du Noüy ring method; ref Yaseen et al., 2005; cited from earlier work
[17] = tested on: red blood cells (RBC); conditions: cited from earlier work
[18] = Langmuir trough method, cited from earlier work
[19] = Homo sapiens, NCI-H292, H292, 24 h at 37°C

| Compound | CMC (APLs) / CAC (pro-APLs) [5] [µM] | IC50 [8] [µM] | HA200 (hemolytic activity at 200 μM) ([9]; 1 h) [%] | HA200 (hemolytic activity at 200 μM) ([9]; 24 h) [%] | Particle size of lipoplexes [10] | IC50 [11] [µM] | H120 (hydrolysis rate after a 120-h incubation period) ([12]; pH 4.5) [%] | H120 (hydrolysis rate after a 120-h incubation period) ([12]; pH 7.4) [%] | CMC (APLs) / CAC (pro-APLs) [13] [µM] | IC50 [14] [µM] | IC50 ([2]; Homo sapiens) [µM] | IC50 ([3]; Homo sapiens) [µM] | HA200 (hemolytic activity at 200 μM) ([15]; 1 h) [%] | IC50 [4, 19] [µM] | other results |
| --- | --- | --- | --- | --- | --- | --- | --- | --- | --- | --- | --- | --- | --- | --- | --- |
| 3-((((((Dodecyloxy)carbonyl)oxy)ethoxy)(hexadecyloxy)phosphoryl)oxy)-N,N,N-trimethylpropan-1-aminium chloride [M C^′12] | 2.0 ± 0.7 |  |  |  |  |  |  |  |  |  |  |  |  |  | H120 (hydrolysis rate after a 120-h incubation period) ([1]; pH 4.5): 13%; H120 (hydrolysis rate after a 120-h incubation period) ([1]; pH 7.4): 14%; IC50 [2]: 48 ± 15 µM; IC50 [3]: 66 ± 27 µM; IC50 ([4]; H292, 24 h at 37°C): 146 ± 37 µM; Particle size of lipoplexes [6]: 91 ± 3 nm; Transfection rate relative to MC12 ([7]; A549, pCMV-Gluc lipoplexes, 10% serum, 24 h): ca. 2 fold |
| CCCCCCCC/C=C\CCCCCCCCCCCCOP(=O)(OCCC[N+](C)(C)C)OC(C)OC(=O)OCCCCCCCCCCCC (stereo not shown) [E C^′12] |  | 179 ± 63 | < 1 | 7.3 ± 0.8 | 92 ± 10 nm | 257 ± 81 | 5 | 6 | 0.9 ± 0.2 | 161 ± 25 |  |  |  |  |  |
| CCCCCCCC/C=C\CCCCCCCCCCCCOP(=O)(OCCC[N+](C)(C)C)OC(C)OC(=O)CCCCCCCCCCC (stereo not shown) [E E^′12] |  | 192 ± 44 |  | 25.3 ± 2.6 | 149 ± 15 nm | 63 ± 7 | 53 | 56 | 1.1 ± 0.7 | 73 ± 15 |  |  |  |  | t1/2 (time needed for 50% hydrolysis) ([12]; pH 4.5): 104 h; t1/2 (time needed for 50% hydrolysis) ([12]; pH 7.4): 96 h |
| CCCCCCCC/C=C\CCCCCCCCCCCCOP(=O)(OCCC[N+](C)(C)C)OCOC(=O)OCCCCCCCCCCCC (stereo not shown) [EC12] |  | 161 ± 21 | < 1 | 9.6 ± 2.3 | 117 ± 15 nm | 252 ± 112 | 1 | 8 | 1.2 ± 0.2 | 167 ± 56 |  |  |  |  |  |
| CCCCCCCC/C=C\CCCCCCCCCCCCOP(=O)(OCCC[N+](C)(C)C)OCOC(=O)OCCCCCCCC/C=C\CCCCCCCC (stereo not shown) [EC18:1] |  | 326 ± 36 | < 1 | 20.9 ± 2.5 | 611 ± 12 nm and 611 nm | 238 ± 58 | 0 | 10 | 0.8 ± 0.4 | 154 ± 40 |  |  |  |  |  |
| CCCCCCCCCCCCCCCCOP(=O)(OCC[N+](C)(C)C)OCOC(=O)CCCCCCCCCCC.[Cl-] (stereo not shown) [ME12, 2-((((Dodecanoyloxy)methoxy)(hexadecyloxy)phosphoryl)oxy)-N,N,N-trimethylethan-1-aminium chloride] | 4.3 ± 2.5 |  |  |  |  |  |  |  |  |  | 39 ± 7 | 69 ± 26 | 18.0 ± 1.2 | 52 ± 28 | H120 (hydrolysis rate after a 120-h incubation period) ([1]; pH 4.5): 3%; H120 (hydrolysis rate after a 120-h incubation period) ([1]; pH 7.4): 20%; HA200 (hemolytic activity at 200 μM) ([15]; 24 h): 103.2 ± 3.6%; Particle size of lipoplexes [6]: 178 ± 8 nm; Serum content up to which significant transgene expression was mediated ([7]; A549, N/P 3, 1 eq. DOPE, DNA dose 0.2 μg/well): up to 50 % serum; Serum content up to which transfection activity extended ([7]; A549, N/P 3, 1 eq. DOPE, DNA dose 0.4 μg/well): up to 75 % serum |
| CCCCCCCCCCCCCCCCOP(=O)([O-])OCC[N+](C)(C)C [Miltefosine, reference compound] | 11.2 ± 2.3 |  |  |  |  |  |  |  |  |  | 77 ± 15 | 73 ± 8 | 90.8 ± 1.5 | 70 ± 9 | CMC [16]: 12 µM; HC50 (concentration provoking 50% hemolysis) ([15]; 1 h): 43 µM; CMC (APLs) / CAC (pro-APLs) ([5]; listed as miltefosine): 11.2 µM; HC50 ([17]; depending on the hematocrit, ref Alonso and Alonso, 2016): 34 to 51 µM; HC50 ([17]; ref Petit et al., 2019): 41 µM; CMC ([18]; ref Rakotomanga et al., 2004): 2.5 to 3.0 µM |
| CCCCCCCCCCCCCCCCCCOP(=O)([O-])OC1CC[N+](C)(C)CC1 [Perifosine, reference compound] | 4.4 ± 1.7 |  |  |  |  |  |  |  |  |  | 127 ± 39 | 116 ± 33 | 85.1 ± 4.0 | 77 ± 3 | HC50 (concentration provoking 50% hemolysis) ([15]; 1 h): 46 µM; CMC (APLs) / CAC (pro-APLs) ([5]; listed as perifosine): 4.4 µM; Hemolysis ([17]; 24-h exposure to 5.4 μM, ref Egler and Lang, 2017): ca. 30%; CMC ([18]; ref Mravljak et al., 2005): 2.5 µM |
